Assay results published in paper PMC7796460, “Relation of Metal-Binding Property and Selective Toxicity of 8-Hydroxyquinoline Derived Mannich Bases Targeting Multidrug Resistant Cancer Cells” (Cancers, 2021).
Marks after values point to notes of the source that are not given here.

Tests used:
MES-SA/Dx5 cells = experiment: ROS determination with DCFDA, MES-SA/Dx5; format: cell-based, human; details: 2 h
Description: Measurements were performed as described earlier. Briefly, cells were harvested, washed with PBS, and incubated with 10 µM DCFDA in a water bath shaker at 37 °C for 30 min in a density of 3 × 10^6 cells/mL. After washing with PBS, cells were seeded to 96-well plates in PBS in a density of 2 × 10^4 cells/well. Following the measurement of the basal fluorescence, test compounds were added in different concentrations and the fluorescence of the samples was followed at time intervals of 10 min. DCFDA solution in buffer was used as a cell free control to test for interaction of the test compounds with DCFDA. Data were analyzed as fold change of fluorescence compared to basal levels and untreated cells. Significance was calculated using unpaired t-tests; results are given as *: p ≤ 0.05, **: p ≤ 0.01, ***: p ≤ 0.001, ****: p ≤ 0.0001.
Table S3: Characterization of intracellular ROS production with the DCFDA assay for P -gp negative MES-SA and P-gp positive MES-SA/Dx5 cells. Fold changes in fluorescence are shown after a 2 h with the investigated 8 -hydroxyquinoline ligands. Data S-refer to Figure 7 and allow […]
concentration range from 6.25µ M to 50µ M. Fold change of fluorescence obtained in the presence of 5 mM NAC is given in brackets.

MDCK cells = experiment: MTT viability assay, MDCK; format: cell-based, canine; details: Canis lupus familiaris, 72 h, MTT 72 h
Text: (§1) MDCK II canine kidney cells, A431 epidermoid carcinoma cells, the human uterine sarcoma cell lines MES-SA and the doxorubicin selected MES-SA-Dx5 were obtained from ATCC (MDCK II: No. CRL-2936™, A431: No. CRL-1555™, MES-SA: No. CRL-1976™, MES-SA/Dx5: No. CRL-1977™). ABCB1 was expressed in A431 and MES-SA cells using lentiviral transduction. The human cervix carcinoma cell line KB-3-1 and the vinblastine selected KB-v1were kind gifts from Dr. Michael M. Gottesman, National Institutes of Health. The phenotype of the resistant cells was verified using cytotoxicity assays. MDCK-B1 and MDCK-MM were established by the Sleeping Beauty transposon-based gene delivery system. OVCAR-8 and NCI-ADRres cells (obtained from the Division of Cancer Treatment and Diagnosis (DCTD) Tumor Repository (National Cancer Institute, Frederick, MD, USA)) were cultivated in RPMI-1640 (Sigma Aldrich, Budapest, Hungary), and other cell lines were cultivated in Dulbecco’s Modified Eagle Medium (DMEM, Sigma Aldrich, Budapest, Hungary), supplemented with 10% fetal bovine serum, 5 mM glutamine, and 50 unit/mL penicillin and streptomycin (Life Technologies, Carlsbad, CA, USA). All cell lines were cultivated at 37 °C, 5% CO2.
(§2) MTT viability assays were performed as described earlier with minor modifications. Briefly, cells were seeded into 96-well tissue culture plates (Sarstedt, Newton, NC, USA/Orange, Braine-l’Alleud, Belgium) at a density of 5000 cells/well and allowed to attach overnight. Test compounds were added to achieve the required final concentration in a final volume of 100 µL per well. After an incubation period of 72 h, the supernatant was removed and fresh medium containing the MTT reagent (0.083 mg/mL) was added. Incubation with MTT at 37 °C was terminated after 1 h by removing the supernatant and lysing the cells with 100 µL DMSO per well. Viability of the cells was measured spectrophotometrically based on the absorbance values at 540 nm using either a Perkin Elmer Victor X3 or an EnSpire microplate reader. Data were background corrected by subtraction of the signal obtained from unstained cell lysates and normalized to untreated cells. Curves were fitted by Prism software (GraphPad Software Inc., San Diego, CA, USA) using the sigmoidal dose-response model (comparing variable and fixed slopes). […] Significance was calculated using unpaired t-tests; results are given as *: p ≤ 0.05, **: p ≤ 0.01, ***: p ≤ 0.001, ****: p ≤ 0.0001.

MES-SA/B1 cells = experiment: MTT viability assay, MES-SA/B1; format: cell-based, human; details: for IC50: Homo sapiens, MES-SA, 72 h, MTT 72 h
Text: as §1, §2

[1] = set-up: method as in PMID 21275772; details: T = 25 °C, I = 0.2 M (KCl), cited from earlier work; for pKa (additional): group named in the cell
MDCK-B1 cells = experiment: MTT viability assay, MDCK-B1 (wild-type Pgp); format: cell-based, canine; details: for IC50: Canis lupus familiaris, 72 h, MTT 72 h
Text: as §1, §2

[2] = MES-SA/Dx5, 6.25 µM, presence of 5 mM NAC (brackets)
[3] = MES-SA/Dx5, 12.5 µM, presence of 5 mM NAC (brackets)
[4] = MES-SA/Dx5, 25 µM, presence of 5 mM NAC (brackets)
[5] = MES-SA/Dx5, 50 µM, presence of 5 mM NAC (brackets)
[6] = presence of 1 µM Tariquidar (values in brackets)
[7] = IC50 MES-SA vs. MES-SA/B1, absence of Tariquidar
[8] = IC50 MES-SA vs. MES-SA/B1, presence of 1 µM Tariquidar (brackets)
[9] = IC50 MDCK vs. MDCK-B1, absence of Tariquidar
[10] = IC50 MDCK vs. MDCK-B1, presence of 1 µM Tariquidar (brackets)

| SMILES | Fold change in fluorescence (DCFDA) (MES-SA/Dx5 cells; MES-SA/Dx5, 6.25 µM) | Fold change in fluorescence (DCFDA) (MES-SA/Dx5 cells; [2]) | Fold change in fluorescence (DCFDA) (MES-SA/Dx5 cells; MES-SA/Dx5, 12.5 µM) | Fold change in fluorescence (DCFDA) (MES-SA/Dx5 cells; [3]) | Fold change in fluorescence (DCFDA) (MES-SA/Dx5 cells; MES-SA/Dx5, 25 µM) | Fold change in fluorescence (DCFDA) (MES-SA/Dx5 cells; [4]) | Fold change in fluorescence (DCFDA) (MES-SA/Dx5 cells; MES-SA/Dx5, 50 µM) | Fold change in fluorescence (DCFDA) (MES-SA/Dx5 cells; [5]) | IC50 (MDCK cells; absence of Tariquidar) [µM] | IC50 (MDCK cells; [6]) [µM] | IC50 (MES-SA/B1 cells; absence of Tariquidar) [nM] | IC50 (MES-SA/B1 cells; [6]) [nM] | SR MES-SA/B1 (MES-SA/B1 cells; [7]) | SR MES-SA/B1 (MES-SA/B1 cells; [8]) | pKa (NquinoliniumH+) [1] | pKa (OH) [1] | IC50 (MDCK-B1 cells; absence of Tariquidar) [µM] | IC50 (MDCK-B1 cells; [6]) [µM] | SR MDCK-B1 (MDCK-B1 cells; [9]) | SR MDCK-B1 (MDCK-B1 cells; [10]) | also measured |
| --- | --- | --- | --- | --- | --- | --- | --- | --- | --- | --- | --- | --- | --- | --- | --- | --- | --- | --- | --- | --- | --- |
| Oc1c(CN2CCCCC2)ccc2cccnc12 [Compound Q-3, 7-(piperidin-1-ylmethyl)quinolin-8-ol] | 1.449± 0.46 | 0.954± 0.15 | 1.400± 0.18 | 1.050± 0.09 | 1.586± 0.22 | 1.201± 0.17 | 1.786± 0.36 | 1.189± 0.18 | 7.61 ± 3.06 | 10.2 | 830 ± 20 | 1500 | 4.95 | 1.99 | 2.69 ^a | 6.99 ^a | 3.22 ± 1.02 | 12.4 | 2.36 | 0.82 | pKa (additional) [1]: >11.5 ^a |
| Oc1c(CNCc2ccccc2F)cc(Cl)c2cccnc12 [Compound Q-4, 5-chloro-7-((2-fluorobenzylamino)methyl)quinolin-8-ol] | 1.238± 0.28 | 1.191± 0.07 | 1.396± 0.35 | 1.337± 0.26 | 1.340± 0.26 | 1.320± 0.31 | 1.286± 0.30 | 1.283± 0.20 | 4.55 ± 1.53 | 5.92 | 300 ± 60 | 1030 | 9.24 | 2.16 | < 2 ^a | 5.16 ^a | 0.89 ± 0.35 | 6.95 | 5.13 | 0.85 | pKa (additional) [1]: 8.54 ^a (NbenzylamineH2^+) |
| Oc1cccc2cccnc12 [Compound Q-1, 8-Hydroxyquinoline] | 1.006± 0.15 | 1.085± 0.11 | 0.720± 0.21 | 1.071± 0.12 | 0.713± 0.21 | 0.971± 0.17 | 0.725± 0.18 | 0.918± 0.10 | 3.27 ± 1.24 | 3.08 | 3680 ± 950 | 4920 | 1.14 | 1.03 | 4.99 ^a | 9.51 ^a | 4.58 ± 1.75 | 15.2 | 0.71 | 0.20 | – |
| Oc1c(CN2CCOCC2)ccc2cccnc12 [Compound Q-2, 7-(morpho-lino-methyl)quinolin-8-ol] | 1.863± 0.81 | 1.024± 0.19 | 2.324± 1.25 | 1.137± 0.32 | 3.348± 2.35 | 1.074± 0.28 | 4.103± 2.67 | 1.154± 0.22 | 9.15 ± 3.51 | 11.1 | 3120 ± 280 | 3600 | 2.23 | 1.29 | 2.59 ^a | 10.37 ^a | 12 ± 7.84 | 12.1 | 0.76 | 0.92 | pKa (additional) [1]: 6.25 ^a (NmorpholiniumH^+) |
